Measurements: patent publication US20260193295A1, “CILAGICIN COMPOUNDS AND METHODS OF USE THEREOF” (priority 2022, published 2026)
In brackets after ≈: the same amount, converted by molar mass. Read-outs that look alike come from different tables or passages of the source. Positions of bridges follow the written chain, without caps; N, C: chain ends. Non-standard residues stand in square brackets, D forms with d. Residues, ends and D or L forms follow the SMILES beside them. *: point of attachment. Hexanoyl(6-Ph) = O=C(CCCCCc1ccccc1)*; X2 = O=C(c1cc2ccccc2n1Cc1ccccc1)*; X1 = CC[C@H](C)CCCCC(=O)*; dDab = NCC[C@@H](N)C(=O)O; Dab = NCC[C@H](N)C(=O)O

Assays:
[1] = test system: Enterococcus faecium; assay type: cell-based
Method: (§1) MIC assay were conducted using the protocol recommended by the Clinical and Laboratory Standards Institute.(37) Culture conditions (temperature, medium) are detailed in Table 3. All compounds were dissolved in sterile DMSO (ATCC, USA) to give a concentration of 6.4 mg/mL. Vancomycin hydrochloride was used as positive controls. Tested compounds were serially diluted across 96-well plates using a 2-fold serial dilution in a volume of 50 μL. An overnight culture of an assay strain was diluted 5,000-fold in fresh medium. 50 μL of this dilution was added into each well, giving a final volume of 100 μL in each well. Compounds were assayed at concentrations ranging from 64 μg/mL to 0.06 μg/mL. The top and bottom rows of each plate were filled with 100 μL of media to avoid edge effects. […] For Clostridium difficile plates were statically incubated under anaerobic conditions (Vinyl anaerobic chamber, 37° C., 5% H2, 5% CO2, 90% N2). For Streptococcus pneumoniae plates were statically incubated under aerobic conditions supplemented with 5% C02 (37° C.). All MICs were performed in technical duplicate (n=2) and repeated three independent times (n=3).

[2] = test system: Streptococcus pyrogens; assay type: cell-based
Method: as §1

[3] = test system: Staphylococcus aureus; assay type: cell-based
Method: as §1

[4] = test system: Streptococcus pneumoniae; assay type: cell-based
Method: as §1

[5] = test system: Streptococcus agalactiae; assay type: cell-based
Method: as §1

[6] = test system: vancomycin-resistant Enterococci clinical isolates; conditions: cited from earlier work
[7] = Enterococci clinical isolate code 781
[8] = Enterococci clinical isolate code 782
[9] = Enterococci clinical isolate code 783
[10] = Enterococci clinical isolate code 784
[11] = Enterococci clinical isolate code 785
[12] = Enterococci clinical isolate code 786
[13] = Enterococci clinical isolate code 787
[14] = Enterococci clinical isolate code 788
[15] = Enterococci clinical isolate code 789
[16] = Enterococci clinical isolate code 790
[17] = Enterococci clinical isolate code 791
[18] = Enterococci clinical isolate code 792
[19] = Enterococci clinical isolate code 793
[20] = Enterococci clinical isolate code 794
[21] = Enterococci clinical isolate code 795
[22] = Enterococci clinical isolate code 796
[23] = Enterococci clinical isolate code 797
[24] = Enterococci clinical isolate code 798
[25] = Enterococci clinical isolate code 799
[26] = Enterococci clinical isolate code 800
[27] = Enterococci clinical isolate code 801
[28] = Enterococci clinical isolate code 802
[29] = Enterococci clinical isolate code 803
[30] = Enterococci clinical isolate code 804
[31] = Enterococci clinical isolate code 805
[32] = Enterococci clinical isolate code 806
[33] = Enterococci clinical isolate code 807
[34] = Enterococci clinical isolate code 808
[35] = Enterococci clinical isolate code 809
[36] = Enterococci clinical isolate code 810

SMILES: CC(C)[C@@H]1NC(=O)[C@H](Cc2ccc(O)cc2)NC(=O)CNC(=O)[C@@H](CC(=O)O)NC(=O)[C@@H](CC(N)=O)NC(=O)CNC(=O)[C@H](CC(=O)O)NC(=O)[C@@H](CCN)NC(=O)[C@@H](NC(=O)[C@@H](CO)NC(=O)CCCCCc2ccccc2)[C@@H](C)OC(=O)[C@H](Cc2ccccc2)NC(=O)[C@H](CCN)NC1=O [Cilagicin L3] ({Hexanoyl(6-Ph)}-[dS]T[dDab]DG[dN][dD]GYV[Dab]F; ester 2-C)
- MIC [1]: 64 µg/mL (≈ 44.7 µM)
- MIC [2]: 1 µg/mL (≈ 0.699 µM)
- MIC [3]: 8 µg/mL (≈ 5.59 µM)
- MIC [4]: 4 µg/mL (≈ 2.8 µM)
- MIC [5]: 16 µg/mL (≈ 11.2 µM)

SMILES: CC[C@H](C)CCCCC(=O)N[C@H](CO)C(=O)N[C@@H]1C(=O)N[C@H](CCN)C(=O)N[C@@H](CC(=O)O)C(=O)NCC(=O)N[C@H](CC(N)=O)C(=O)N[C@H](CC(=O)O)C(=O)NCC(=O)N[C@@H](Cc2ccc(O)cc2)C(=O)N[C@@H](C(C)C)C(=O)N[C@@H](CCN)C(=O)N[C@@H](Cc2ccccc2)C(=O)O[C@@H]1C [Cilagicin L5] (X1-[dS]T[dDab]DG[dN][dD]GYV[Dab]F; ester 2-C)
- MIC [1]: 64 µg/mL (≈ 45.8 µM)
- MIC [2]: 1 µg/mL (≈ 0.716 µM)
- MIC [3]: 4 µg/mL (≈ 2.86 µM)
- MIC [4]: 4 µg/mL (≈ 2.86 µM)
- MIC [5]: 8 µg/mL (≈ 5.73 µM)

SMILES: CC(C)[C@@H]1NC(=O)[C@H](Cc2ccc(O)cc2)NC(=O)CNC(=O)[C@@H](CC(=O)O)NC(=O)[C@@H](CC(N)=O)NC(=O)CNC(=O)[C@H](CC(=O)O)NC(=O)[C@@H](CCN)NC(=O)[C@@H](NC(=O)[C@@H](CO)NC(=O)c2cc3ccccc3n2Cc2ccccc2)[C@@H](C)OC(=O)[C@H](Cc2ccccc2)NC(=O)[C@H](CCN)NC1=O [Cilagicin L4] (X2-[dS]T[dDab]DG[dN][dD]GYV[Dab]F; ester 2-C)
- MIC [3]: 8 µg/mL (≈ 5.37 µM)

SMILES: CC1(C)S[C@@H]2[C@H](NC(=O)[C@H](N)c3ccccc3)C(=O)N2[C@H]1C(=O)O [Ampicillin]
- MIC [6, 7]: 1 µg/mL (≈ 2.86 µM)
- MIC [6, 8]: 1 µg/mL (≈ 2.86 µM)
- MIC [6, 9]: 64 µg/mL (≈ 183 µM)
- MIC [6, 10]: 1 µg/mL (≈ 2.86 µM)
- MIC [6, 11]: 2 µg/mL (≈ 5.72 µM)
- MIC [6, 12]: 0.5 µg/mL (≈ 1.43 µM)
- MIC [6, 13]: 8 µg/mL (≈ 22.9 µM)
- MIC [6, 14]: 1 µg/mL (≈ 2.86 µM)
- MIC [6, 15]: 0.12 µg/mL (≈ 0.343 µM)
- MIC [6, 16]: 64 µg/mL (≈ 183 µM)
- MIC [6, 17]: 1 µg/mL (≈ 2.86 µM)
- MIC [6, 18]: 64 µg/mL (≈ 183 µM)
- MIC [6, 19]: 1 µg/mL (≈ 2.86 µM)
- MIC [6, 20]: 64 µg/mL (≈ 183 µM)
- MIC [6, 21]: 2 µg/mL (≈ 5.72 µM)
- MIC [6, 22]: 2 µg/mL (≈ 5.72 µM)
- MIC [6, 23]: 1 µg/mL (≈ 2.86 µM)
- MIC [6, 24]: 1 µg/mL (≈ 2.86 µM)
- MIC [6, 25]: 1 µg/mL (≈ 2.86 µM)
- MIC [6, 26]: 1 µg/mL (≈ 2.86 µM)
- MIC [6, 27]: 1 µg/mL (≈ 2.86 µM)
- MIC [6, 28]: 64 µg/mL (≈ 183 µM)
- MIC [6, 29]: 128 µg/mL (≈ 366 µM)
- MIC [6, 30]: 1 µg/mL (≈ 2.86 µM)
- MIC [6, 31]: 1 µg/mL (≈ 2.86 µM)
- MIC [6, 32]: 4 µg/mL (≈ 11.4 µM)
- MIC [6, 33]: 32 µg/mL (≈ 91.6 µM)
- MIC [6, 34]: 2 µg/mL (≈ 5.72 µM)
- MIC [6, 35]: 0.5 µg/mL (≈ 1.43 µM)
- MIC [6, 36]: 1 µg/mL (≈ 2.86 µM)

SMILES: CCCCCCCCCC(=O)N[C@@H](Cc1c[nH]c2ccccc12)C(=O)N[C@H](CC(N)=O)C(=O)N[C@@H](CC(=O)O)C(=O)N[C@@H]1C(=O)NCC(=O)N[C@@H](CCCN)C(=O)N[C@@H](CC(=O)O)C(=O)N[C@H](C)C(=O)N[C@@H](CC(=O)O)C(=O)NCC(=O)N[C@H](CO)C(=O)N[C@@H]([C@H](C)CC(=O)O)C(=O)N[C@@H](CC(=O)c2ccccc2N)C(=O)O[C@@H]1C [Daptomycin]
- MIC [6, 7]: 4 µg/mL (≈ 2.47 µM)
- MIC [6, 8]: 2 µg/mL (≈ 1.23 µM)
- MIC [6, 9]: 4 µg/mL (≈ 2.47 µM)
- MIC [6, 10]: 4 µg/mL (≈ 2.47 µM)
- MIC [6, 11]: 2 µg/mL (≈ 1.23 µM)
- MIC [6, 12]: 0.5 µg/mL (≈ 0.309 µM)
- MIC [6, 13]: 8 µg/mL (≈ 4.94 µM)
- MIC [6, 14]: 1 µg/mL (≈ 0.617 µM)
- MIC [6, 15]: 8 µg/mL (≈ 4.94 µM)
- MIC [6, 16]: 4 µg/mL (≈ 2.47 µM)
- MIC [6, 17]: 1 µg/mL (≈ 0.617 µM)
- MIC [6, 18]: 4 µg/mL (≈ 2.47 µM)
- MIC [6, 19]: 4 µg/mL (≈ 2.47 µM)
- MIC [6, 20]: 4 µg/mL (≈ 2.47 µM)
- MIC [6, 21]: 1 µg/mL (≈ 0.617 µM)
- MIC [6, 22]: 2 µg/mL (≈ 1.23 µM)
- MIC [6, 23]: 1 µg/mL (≈ 0.617 µM)
- MIC [6, 24]: 1 µg/mL (≈ 0.617 µM)
- MIC [6, 25]: 2 µg/mL (≈ 1.23 µM)
- MIC [6, 26]: 2 µg/mL (≈ 1.23 µM)
- MIC [6, 27]: 2 µg/mL (≈ 1.23 µM)
- MIC [6, 28]: 4 µg/mL (≈ 2.47 µM)
- MIC [6, 29]: 4 µg/mL (≈ 2.47 µM)
- MIC [6, 30]: 1 µg/mL (≈ 0.617 µM)
- MIC [6, 31]: 2 µg/mL (≈ 1.23 µM)
- MIC [6, 32]: 4 µg/mL (≈ 2.47 µM)
- MIC [6, 33]: 4 µg/mL (≈ 2.47 µM)
- MIC [6, 34]: 4 µg/mL (≈ 2.47 µM)
- MIC [6, 35]: 4 µg/mL (≈ 2.47 µM)
- MIC [6, 36]: 4 µg/mL (≈ 2.47 µM)
